Data published in patent US10168323B2, “Compositions and methods for capture of cellular targets of bioactive agents” (Promega Corporation, priority 2013, dated 2019).
Where “and” joins values, the source holds several entries; their conditions need not be identical. Identical values can stand only once. Values belong to the compound of their own block, whether it stands above or below them.

Legend:
[1] = target: T1, NANOLUC-p38 alpha fusion protein (Homo sapiens, UniProt Q16539); assay: Pull-down of NANOLUC-p38 alpha fusion from living HEK293 cells onto HALOTAG protein beads; assay type: cell-based
T1 construct: NANOLUC luciferase (reporter fusion partner); expressed in transfected cells; host or cells: HEK293
T1 sequence (Q16539 whole entry, the tested form may be a part): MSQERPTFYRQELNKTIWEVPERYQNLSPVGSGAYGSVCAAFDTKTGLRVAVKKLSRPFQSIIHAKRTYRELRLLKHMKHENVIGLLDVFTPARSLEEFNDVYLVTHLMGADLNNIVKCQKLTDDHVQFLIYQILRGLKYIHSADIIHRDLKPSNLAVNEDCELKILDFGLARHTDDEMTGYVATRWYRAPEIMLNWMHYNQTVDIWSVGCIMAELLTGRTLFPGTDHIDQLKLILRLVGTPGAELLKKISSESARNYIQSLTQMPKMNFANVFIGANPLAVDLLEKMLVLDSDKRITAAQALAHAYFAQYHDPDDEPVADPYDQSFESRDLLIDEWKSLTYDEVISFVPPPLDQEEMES
Procedure: In this example, a BIRB-chloroalkane conjugate (PBI-4834, see below) was utilized to pull down a NANOLUC-p38 alpha fusion protein from living cells.
HEK293 cells in wells of a 96-well plate were transfected using PEI with plasmid DNA encoding NANOLUC-p38 fusion. Twenty-four hours post-transfection, cells were incubated with a final concentration of 10 μM PBI-4834 while control cells were not treated with the conjugated drug. Following equilibration binding of 2 hours, the media was removed, cells were quickly washed with PBS and lysed in a detergent-based lysis buffer for 10 minutes. The cell lysates were then transferred to wells of a 96-well plate which contained 0.5 μl settled paramagnetic HALOTAG protein beads (Promega Corp.) and incubated with shaking for 15-45 minutes. Following binding, the unbound fraction was removed and the HALOTAG protein paramagnetic beads were washed. 150 uM unconjugated BIRB796 was then added and the captured NANOLUC-p38 alpha fusion was specifically released from the beads by competition with the unconjugated BIRB796 for 60 minutes. The released NANOLUC-p38 alpha fusion protein (+PBI-4834) and control (−PBI4834) was detected using NANOGLO luciferase reagent (Promega Corp.).

[2] = target: T2, NANOLUC-p38 fusion protein (Homo sapiens, UniProt Q16539); assay: Pull-down of NANOLUC-p38 fusion from cell lysates with HALOTAG protein dimer on HALOLINK plates; assay type: binding; details: p38-Nluc expressing cells treated with drug, listed as BIRB-chloroalkane
T2 construct: NANOLUC luciferase (reporter fusion partner); expressed in transfected cells
T2 sequence (Q16539 whole entry, the tested form may be a part): as above
Procedure: Different amounts of a HALOTAG protein dimer (dimer of SEQ ID NO: 1) were added to cell lysates expressing a NANOLUC-p38 fusion protein (e.g., reporter/cellular-target fusion) which have or have not been treated with BIRB-chloroalkane (e.g., bioactive-agent/capture-ligand conjugate) as shown in Table 1. After 15 minute incubation, the samples were placed into wells of white, 96-well polystyrene plates activated with HALOTAG ligand (HALOLINK plates; Promega Corp.) and further incubated for 45 minutes. The wells were then washed PBS+0.05% Tween-20 (PBST). Then, 50 ul PBS followed by 50 ul of NANOGLO luciferase detection reagent was added to the wells, and luminescence measured.
Table 2 indicates differences in luminescence in samples with and without HALOTAG dimer (e.g., dimer of SEQ ID NO: 1) that indicate specific pull-down of the NANOLUC-p38 fusion protein.

[3] = target: T3, p38 alpha (Homo sapiens, UniProt Q16539); assay: Endogenous target pull-down from HEK293 cells (western blot, mass spec); assay type: cell-based; details: 10 uM conjugate, western blot and mass spec
T3 construct: isolate, e.g., pull-down, endogenous targets from cells; endogenous in cells; host or cells: HEK293
T3 sequence (Q16539 whole entry): as the sequence (Q16539 whole entry, the tested form may be a part) above
Procedure: HEK293 cells were plated in a 6 well plate (2.5×10^5 cells). 48 hours post plating, a final concentration of 10 uM of BIRB-chloroalkane (PBI-4834) was added to 2 wells while control cells were not treated with the drug conjugate. Following equilibration binding for 2 h, the media was removed, and the cells were quickly washed with PBS and lysed in detergent-based lysis buffer for 10 min. Cell lysates were then transferred to an EPPENDORF tube containing 12.5 ul of settled paramagnetic HALOTAG protein beads and incubated with shaking for 15 min. Following binding, the unbound fraction was removed, the HALOTAG protein paramagnetic beads washed 3×, and the captured targets specifically released from the beads by competition with 150 μM unconjugated BIRB796 for 60 min. The released targets were subjected to mass spec analysis as well as western blot analysis using an anti-p38 alpha antibody (Abcam).

[4] = target: T1, NANOLUC-p38 alpha fusion protein; assay: Pull-down and release of NANOLUC-p38 alpha fusion from HEK293 cell lysates; assay type: binding
Procedure: In this example, BIRB-chloroalkane conjugate (PBI-4834) and BIRB chloroalkane conjugate containing a cleavable linker (PBI-5131) were utilized to pull-down a NANOLUC-p38 alpha fusion protein from HEK293 cell lysates. Lysate of cells expressing NANOLUC-p38 fusion were incubated with 1 μM PBI-4834 or PBI-5131 (final concentration) while control lysates were not treated with the conjugated drugs. Following equilibration binding for 2 h, the lysates were transferred to wells of a 96-well plate containing 0.5 μl settled paramagnetic HALOTAG protein beads and incubated with shaking for 45 min. Following binding the unbound fraction was removed, the HALOTAG protein paramagnetic beads were washed 3×, and the captured NANLUC-p38 alpha fusion specifically released from the beads by one of two methods: • 1. 150 μM unconjugated BIRB796 was used to compete for binding with the conjugated BIRB796 on the NANOLUC-p38 alpha fusion for 60 min. • 2. The NANOLUC-p38 alpha fusion was rapidly released through 10 min chemical cleavage of the chloroalkane linker with 10 mM of sodium hydrosulfite (PBI-5131 is a chloroalkane cleavable linker). The released NANOLUC-p38 alpha (+PBI4834/+PBI5131) and control (-drug) were detected with NANOGLO luciferase detection reagent.

[5] = target: T4, NANOLUC-DHFR fusion (Homo sapiens, UniProt P00374); assay: Binding affinity to DHFR in live cells using BRET; assay type: cell-based; details: live HEK293 cells, in the presence of 1 μM PBI-4890
T4 construct: NANOLUC luciferase (reporter fusion partner); expressed in transfected cells; host or cells: HEK293
T4 sequence (P00374 1-187): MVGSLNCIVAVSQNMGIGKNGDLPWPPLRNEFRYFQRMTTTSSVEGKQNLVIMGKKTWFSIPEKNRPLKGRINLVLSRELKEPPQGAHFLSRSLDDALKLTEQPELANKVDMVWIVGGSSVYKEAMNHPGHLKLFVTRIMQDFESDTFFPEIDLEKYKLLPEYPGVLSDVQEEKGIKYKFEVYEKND
Procedure: Binding affinity to DHFR in live cells was tested using BRET. HEK293 cells in wells of a 96-well plate were transfected using PEI with plasmid DNA encoding a NANOLUC-DHFR fusion. The DNA was diluted 1:50 with a promoterless carrier DNA plasmid (PSI) to a final concentration of 80 ng total DNA per well. Twenty-four hours post-transfection, cells were serum starved for additional 24 hours and then treated with serially diluted PBI-4848 or PBI-5015 in the presence of 1 μM PBI-4890 (TOM-methotrexate derivative). After two hours of equilibration binding, furimazine (a coelenterazine derivative; Promega Corp.) was added to a final concentration of 20 μM, and BRET measured on a Varioskan luminometer.

[6] = target: T5, NANOLUC:DHFR (Nluc:DHFR) fusion (Homo sapiens, UniProt P00374); assay: Pull-down of NANOLUC:DHFR from live HEK293 cells onto HALOTAG protein beads; assay type: cell-based; details: 10 μM conjugate, release with 150 μM methotrexate
T5 construct: NANOLUC luciferase (reporter fusion partner); expressed in transfected cells; host or cells: HEK293
T5 sequence (P00374 1-187): T4 sequence (P00374 1-187)
Procedure: The DNA was diluted 1:50 with a promoterless carrier DNA plasmid (PSI) to a final concentration of 80 ng total DNA per well. Twenty-four hours post-transfection, cells were serum starved for additional 24 h and then incubated with 10 μM PBI-4848 or PBI-5015 while control cells were not treated with the conjugated drug. Following equilibration binding of 2 h, the media was removed, and the cells quickly washed with PBS and lysed in detergent-based lysis buffer for 10 min. Cell lysates were then transferred to wells of a 96-well plate containing 0.5 μl settled paramagnetic HALOTAG protein beads and incubated with shaking for 45 min. Following binding, the unbound fraction was removed, the HALOTAG protein paramagnetic beads washed, 150 μM unconjugated methotrexate added, and the captured NANOLUC:DHFR specifically released from the beads by competition with the unconjugated methotrexate for 60 min. The released NANOLUC:DHFR (+PBI5015 or +PBI 4848) and control samples were detected by NANOGLO luciferase detection reagent.

[7] = target: T6, DHFR (Homo sapiens, UniProt P00374); assay: Endogenous target pull-down from HEK293 cells (western blot, mass spec); assay type: cell-based; details: 10 uM conjugate, western blot and mass spec
T6 construct: isolate, e.g., pull-down, endogenous targets from cells; endogenous in cells; host or cells: HEK293
T6 sequence (P00374 1-187): T4 sequence (P00374 1-187)
Procedure: HEK293 cells were plated into wells of a 6-well plate (2.5×10^5 cells/well). 48 hours post plating, a final concentration of 10 uM of Methotrexate chloroalkane (PBI-5015) was added to 2 wells while control cells were not treated with the drug conjugate. Following equilibration binding for 2 h, the media was removed, and the cells quickly washed with PBS and lysed in detergent-based lysis buffer for 10 min. Cell lysates were then transferred to an Eppendorf® tube containing 12.5 ul of settled paramagnetic HALOTAG protein beads and incubated with shaking for 15 min. Following binding, the unbound fraction was removed, the HALOTAG paramagnetic beads washed 3×, and the captured targets specifically released from the beads by competition with 150 μM unconjugated methotrexate for 60 mins. The released targets were subjected to mass spec analysis as well as western blot analysis using an anti-DHFR antibody (Sigma). […] Furthermore, although the expression level of DHFR in the cells is very low (not detected in lysate by western blot analysis), it was still efficiently captured as indicated by the western blot analysis (FIG. 8A) and mass spec analysis (FIG. 8B).

Compound: CC(C)(C)c1cc(NC(=O)Nc2ccccc2)n(-c2cccc(CNC(=O)CNC(=O)OCCOCCOCCOC(=O)NCCOCCOCCCCCCCl)c2)n1 [PBI-4834]
expressed fusion specifically captured to the beads ([1]; 10 μM conjugate, HEK293 cells, release with 150 uM BIRB796): 1%
signal over background of capture on HALOTAG protein beads ([1]; within 15 minutes of capture): high signal over background
luminescence ([2]; 2 ug/well HALOTAG dimer): 236900 and 397958 and 431167
luminescence ([2]; 6 ug/well HALOTAG dimer): 401205 and 538956 and 596504
luminescence ([2]; 8 ug/well HALOTAG dimer): 395510 and 526903 and 610628
luminescence ([2]; No HALOTAG dimer): 278085 and 275690 and 443682
pull-down of endogenous p38 alpha [3]: specifically isolated
pull-down efficiency of NANOLUC-p38 alpha ([4]; 1 μM conjugate, HEK293 cell lysate): significantly higher

affinity to DHFR (dose-response BRET curves) [5]: higher affinity
Compound: CN(Cc1cnc2nc(N)nc(N)c2n1)c1ccc(C(=O)NC(CCC(=O)NCCOCCOCCCCCCCl)C(=O)O)cc1 (stereo not shown) [PBI-4848]

affinity to DHFR (dose-response BRET curves) [5]: lower affinity
pull-down of Nluc:DHFR fusion [6]: efficiently pulled down
pull-down of endogenous DHFR [7]: specifically isolated
Compound: CN(Cc1cnc2nc(N)nc(N)c2n1)c1ccc(C(=O)NC(CCC(=O)NCCCCCNC(=O)OCCOCCOCCOC(=O)NCCOCCOCCCCCCCl)C(=O)O)cc1 (stereo not shown) [PBI-5015]

specific capture after rapid release using chemical cleavage ([4]; 10 min cleavage with 10 mM sodium hydrosulfite): significant increase in specific capture
Compound: CC(C)(C)c1cc(NC(=O)Nc2ccccc2)n(-c2cccc(CNC(=O)CCCCCOc3ccc(/N=N/c4ccc(C(=O)NCCOCCOCCCCCCCl)cc4)c(O)c3)c2)n1 [PBI-5131]
